From publication PMC6941357, “An in vitro toolbox to accelerate anti-malarial drug discovery and development” (Malaria Journal, 2020)

What was measured:
[1] = In vitro metabolism (metabolic stability) in human liver microsomes; conditions: human, pH 7.4, HLM CLint
How it was run: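 Compound depletion in human liver microsomes was followed by LC–MS at 2–60 min, with cofactor-free controls. First-order depletion rate constants gave in vitro CLint (µL/min/mg protein), corrected to unbound CLint using measured microsomal fu.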

[2] = biological target: CYP2D6 (Homo sapiens, UniProt P10635); experiment: Cytochrome P450 inhibition in human liver microsomes
Procedure: (§1) The CYP inhibition assay was based on a previous publication with minor modifications. The method uses human liver microsomes and a substrate-specific interaction approach which relies on the formation of a metabolite that is mediated by a specific CYP isoform. The specific CYP-mediated metabolic pathways, substrates, substrate Km values, positive control inhibitors and specific incubation conditions are shown in Additional file 1: Table S4. […] Samples were quenched by the addition of ice-cold acetonitrile containing diazepam as the analytical internal standard. Concentrations of the substrate-specific metabolites in quenched samples were determined by LC–MS (Additional file 1: Table S5) relative to calibration standards prepared in quenched microsomal matrix.
(§2) The inhibitory effect of each test compound and positive control inhibitor was based on the reduction in the formation of the specific CYP-mediated metabolite (represented as percent inhibition of enzyme activity) relative to metabolite formation in the absence of inhibitor (i.e. control for maximal enzyme activity). […] The Km was determined under the same incubation conditions by measuring the rate of metabolite formation (pmol/min/mg protein) as a function of substrate concentration (Additional file 1: Table S4).

[3] = biological target: CYP3A4 (Homo sapiens, UniProt P08684); experiment: as above
Procedure: as §1, §2

[4] = biological target: T1, Albumax medium (lipid rich bovine serum albumin) (Bos taurus, UniProt P02769); experiment: Binding in Albumax medium via ultracentrifugation; assay type: in vitro ADME; conditions: for fraction unbound at […], 500 ng/mL: bovine
T1 construct: purchased Gibco, Thermo Fisher Scientific
Procedure: (§3) An ultracentrifugation method adapted from a previous publication was initially used to assess plasma protein binding and binding in the other media. […] Additional ultracentrifuge tubes containing spiked matrix were maintained at 37 °C, 5% or 10% CO2 or normal atmosphere conditions, with aliquots being taken within 0.5 h of the start and at the end of ultracentrifugation to serve as controls for the assessment of stability and to obtain a measure of the total concentration (Ctotal). Following ultracentrifugation, the pH was checked and an aliquot of protein-free supernate was taken from each ultracentrifuge tube for determination of the unbound concentration (Cunbound).
(§4) Total matrix and protein free samples were analysed using a matrix matching approach whereby each sample was mixed in a 1:1 ratio with the opposite blank medium (i.e. blank total matrix or blank protein free buffer). For example, plasma samples were mixed with blank pH 7.4 buffer whereas plasma supernatant samples were mixed with blank plasma. Each of the sample sets were then assayed against a common calibration curve prepared in a 1:1 mixture of total matrix and protein free pH 7.4 buffer. […] The standard deviation for fu was calculated using the propagation of errors approach as described previously. The potential for compound degradation was assessed by comparing the average value for Ctotal at the start and end of the experiment.

[5] = Plasma protein binding via ultracentrifugation (UC); assay type: in vitro ADME, human; conditions: human, pH 7.4, ultracentrifugation, read-out: Fraction unbound, human plasma
Procedure: Pooled human plasma (n = 3–4 donors) was obtained by centrifugation of blood (collected by the Australian Red Cross Blood Service, Melbourne, Australia or the Volunteer Blood Donor Registry, Clinical Translation Centre, Walter & Eliza Hall Institute of Medical Research, Parkville, Australia), or sourcing pooled plasma directly from commercial sources (Innovative Research Inc, MI) and stored frozen at − 80 °C.
as §3, §4

[6] = Octanol/pH 7.4 buffer partition coefficient, shake flask; conditions: octanol/pH 7.4 buffer; for Measured Log D7.4: shake flask, 37 °C; for logD: pH 7.4
Procedure: Partition coefficients between octanol and pH 7.4 buffer were measured using a shake flask method. A stock solution of test compound in octanol was prepared at a concentration between 3 and 30 mg/mL based on the expected partition coefficient value. This stock solution was then diluted 3- and 10-fold with octanol and used to prepare the octanol phase for the partitioning experiments. Two different dilutions were used to confirm that there were no saturation effects. Phosphate buffered saline was prepared by combining 67 mM disodium hydrogen orthophosphate and sodium dihydrogen orthophosphate (both prepared in 43 mM NaCl) to a final pH of 7.4.
Partitioning experiments were conducted by mixing equal volumes of the octanol (containing test compound) and aqueous phases and placing on a vibrating plate mixer in an incubator at 37 °C. […] An aliquot of the aqueous phase was carefully removed and centrifuged again to ensure no contamination from the octanol phase before sampling in duplicate and diluting with aqueous methanol for analysis. Diluted samples were analysed by LC–MS along with calibration standards (Additional file 1: Table S2) and partition coefficients were calculated from the ratio of the mean octanol to buffer concentration after accounting for the dilution factors. The partitioning results for the two time points were used to confirm that the partitioning experiment had reached equilibrium.

[7] = Binding to human liver microsomes via ultracentrifugation; assay type: in vitro ADME; conditions: human, liver microsomes, pH 7.4, 0.4 mg/mL protein, read-out: Fraction unbound, HLM
Procedure: A suspension of human liver microsomes (HLM, XenoTech LLC, Lenexa, KS, USA) was prepared in 0.1 M phosphate buffer (pH 7.4) at a protein concentration of 0.4 mg/mL immediately prior to the experiment.
as §3, §4

[8] = liver microsomes, human liver microsomes, average of n = 2 replicates, < 7 means < 15% loss over 60 min
[9] = CYP3A4 (midaz) IC50, human liver microsomes, CYP3A4 (midaz), highest concentration tested 20 µM
[10] = CYP3A4 (test) IC50, human liver microsomes, CYP3A4 (test), highest concentration tested 20 µM
[11] = neat pooled plasma, neat plasma
[12] = human, microsomes, pH 7.4, CYP3A4 (test) % inhibition at max conc

Chain of CYP2D6 (P10635 whole entry, canonical isoform): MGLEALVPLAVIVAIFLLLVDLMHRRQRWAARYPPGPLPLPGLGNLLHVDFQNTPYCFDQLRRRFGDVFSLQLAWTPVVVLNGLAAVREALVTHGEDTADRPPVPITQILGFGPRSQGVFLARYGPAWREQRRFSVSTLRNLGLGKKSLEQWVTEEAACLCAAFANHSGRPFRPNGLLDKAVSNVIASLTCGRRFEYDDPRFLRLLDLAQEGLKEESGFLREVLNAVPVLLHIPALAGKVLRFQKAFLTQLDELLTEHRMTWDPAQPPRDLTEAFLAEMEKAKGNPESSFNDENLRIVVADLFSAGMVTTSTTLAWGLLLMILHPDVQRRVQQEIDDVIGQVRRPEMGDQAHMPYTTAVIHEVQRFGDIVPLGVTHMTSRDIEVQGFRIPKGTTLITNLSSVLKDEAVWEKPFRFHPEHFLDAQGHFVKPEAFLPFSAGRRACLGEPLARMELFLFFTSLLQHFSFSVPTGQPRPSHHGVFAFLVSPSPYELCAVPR
T1 sequence (P02769 25-607): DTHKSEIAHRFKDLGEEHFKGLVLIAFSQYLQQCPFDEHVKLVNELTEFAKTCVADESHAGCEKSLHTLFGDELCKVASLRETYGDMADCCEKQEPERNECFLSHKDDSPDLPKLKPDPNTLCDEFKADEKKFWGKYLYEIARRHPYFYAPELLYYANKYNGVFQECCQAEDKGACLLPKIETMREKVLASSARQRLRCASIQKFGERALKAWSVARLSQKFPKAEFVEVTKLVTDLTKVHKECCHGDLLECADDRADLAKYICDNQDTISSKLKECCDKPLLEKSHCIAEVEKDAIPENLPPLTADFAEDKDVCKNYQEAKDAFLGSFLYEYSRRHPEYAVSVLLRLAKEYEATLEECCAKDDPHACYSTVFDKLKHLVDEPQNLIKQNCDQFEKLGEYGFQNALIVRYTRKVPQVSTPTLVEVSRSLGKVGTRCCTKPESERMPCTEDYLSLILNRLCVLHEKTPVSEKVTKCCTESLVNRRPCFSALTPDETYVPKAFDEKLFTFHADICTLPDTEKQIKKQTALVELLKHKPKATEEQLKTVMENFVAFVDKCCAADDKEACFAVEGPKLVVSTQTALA
Chain of CYP3A4 (P08684 whole entry): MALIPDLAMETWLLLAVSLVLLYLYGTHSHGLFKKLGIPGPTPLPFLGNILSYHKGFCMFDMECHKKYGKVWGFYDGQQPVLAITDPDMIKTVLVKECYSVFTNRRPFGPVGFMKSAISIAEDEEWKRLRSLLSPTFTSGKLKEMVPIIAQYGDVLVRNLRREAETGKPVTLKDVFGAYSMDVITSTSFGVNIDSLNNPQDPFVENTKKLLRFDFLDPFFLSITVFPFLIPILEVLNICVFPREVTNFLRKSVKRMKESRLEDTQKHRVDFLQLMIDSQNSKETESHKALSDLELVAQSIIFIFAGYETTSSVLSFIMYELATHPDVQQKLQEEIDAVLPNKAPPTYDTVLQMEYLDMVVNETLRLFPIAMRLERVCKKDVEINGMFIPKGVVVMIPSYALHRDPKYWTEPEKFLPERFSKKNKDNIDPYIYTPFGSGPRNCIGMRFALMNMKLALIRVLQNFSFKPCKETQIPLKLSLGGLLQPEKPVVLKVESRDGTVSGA

| SMILES | microsomal CLint at 1 µM [1, 8] [µL/min/mg] | IC50 [2] [µM] | CYP3A4 (midaz) % inhibition at max conc ([3]; microsomes) | CYP3A4 (test) % inhibition at max conc ([3]; microsomes) | Fraction unbound, Albumax [4] | CYP2D6 % inhibition at max conc ([2]; microsomes) | IC50 ([2]; microsomes) [µM] | IC50 ([3]; microsomes) [µM] | fraction unbound at […] [5, 11] | further results |
| --- | --- | --- | --- | --- | --- | --- | --- | --- | --- | --- |
| CCCCN(CCCC)CC(O)c1cc(Cl)cc2c1-c1ccc(Cl)cc1/C2=C/c1ccc(Cl)cc1 (centres unmarked) [Lumefantrine] | < 7 | 2.9 | nmi | nmi |  |  |  |  |  | Ki [2]: 1.8 µM; IC50 [3, 9]: > 20 µM; IC50 [3, 10]: > 20 µM |
| COc1cc(N[C@H](C)CCCN)c2nccc(C)c2c1Oc1ccc(Cl)c(Cl)c1 [NPC1161B] |  |  | 37% |  | 0.035 ± 0.0020 | 39% | > 20 |  |  | Ki ([3]; microsomes): 8.2 µM |
| C[C@H]1[C@H](OC(=O)CCC(=O)O)O[C@@H]2O[C@@]3(C)CC[C@H]4[C@H](C)CC[C@@H]1[C@@]24OO3 [Artesunate] |  | > 20 | nmi | nmi |  | nmi |  |  |  | fraction unbound at […] ([5]; pooled plasma, instability evident, estimate only): 0.27 ± 0.008; fraction unbound at […], 500 ng/mL ([4]; Albumax medium, pH 7.4, instability evident, estimate only): 0.14 ± 0.007; microsomal CLint at 1 µM ([1]; microsomes): 146 µL/min/mg; IC50 ([3]; human, microsomes, pH 7.4, CYP3A4 (test) IC50): > 20 µM |
| CCc1nc(N)nc(N)c1OCCCOc1ccccc1CCC(=O)O.Cl [P218] |  |  | nmi | nmi | 0.41 ± 0.022 | nmi | > 20 | > 20 |  | Measured Log D7.4 [6]: 0.080 |
| CC(C)(C)NCc1cc(Nc2ccnc3cc(Cl)ccc23)c2c(c1O)CCCC2 [Naphthoquine] |  |  | 41% | 38% | 0.27 ± 0.035 |  | 1.1 | > 20 |  | Measured Log D7.4 [6]: 4.18; Ki ([2]; microsomes): 0.68 µM |
| CCCCN(CCCC)CCC(O)c1cc2c(Cl)cc(Cl)cc2c2cc(C(F)(F)F)ccc12 (centres unmarked) [Halofantrine] |  | 0.27 |  |  |  |  |  |  | 0.13 | fraction unbound at […], 500 ng/mL ([4]; Albumax medium, pH 7.4): 0.008 ± 0.001; fraction unbound at […] [7]: 0.002 ± 0.0002; microsomal CLint at 1 µM ([1]; microsomes): 26.9 µL/min/mg; Ki [2]: 0.19 µM; inhibition at 20 µM ([3]; human, microsomes, pH 7.4, CYP3A4 (midaz) % inhibition at max conc, human liver microsomes, CYP3A4 (midaz), at max conc, nmi = no measurable inhibition): 24%; inhibition at 20 µM ([3]; human, microsomes, pH 7.4, CYP3A4 (test) % inhibition at max conc, human liver microsomes, CYP3A4 (test), at max conc, nmi = no measurable inhibition): 19% |
| O=C(NCCN1CCCC1)c1cc(-c2ccc(CN3CCOCC3)cc2)nc2ccc(F)cc12 [M5717] |  |  | nmi | nmi | 0.55 ± 0.041 | nmi | > 20 | > 20 |  |  |
| CS(=O)(=O)O.FC1CCN(CCOc2ccc(C3CCC4(CC3)OOC3(OO4)C4CC5CC(C4)CC3C5)cc2)CC1 (centres unmarked) [TDD-E209] |  |  |  |  | 0.0070 ± 0.0010 |  |  |  |  |  |
| CC(C)(C)NCc1cc(C(C)(C)C)cc(-c2cnc(C(F)(F)F)c(F)c2)c1O [JPC3210] |  |  | nmi | nmi | 0.21 ± 0.012 |  | 0.7 | > 20 |  | Measured Log D7.4 [6]: 5.30; Ki ([2]; microsomes): 0.43 µM |
| COc1ncnc(NS(=O)(=O)c2ccc(N)cc2)c1OC [Sulfadoxine] | < 7 | > 20 | nmi | nmi |  | nmi |  |  | 0.036 ± 0.001 | fraction unbound at […], 500 ng/mL ([4]; isolated protein, pH 7.4): 0.5 ± 0.03; fraction unbound at […] [7]: 0.93 ± 0.086 |
| CN(C)C[c-]1cccc1CNc1ccnc2cc(Cl)ccc12.[Fe+2].c1cc[cH-]c1 (centres unmarked) [Ferroquine] |  |  |  | 42% | 0.52 ± 0.031 |  | 0.83 |  |  | Measured Log D7.4 [6]: 3.39; Ki ([2]; microsomes): 0.52 µM; Ki ([3]; microsomes): 5.2 µM |
| COc1cc2[nH]c(C)c(-c3ccc(Oc4ccc(OC(F)(F)F)cc4)cc3)c(=O)c2cc1Cl [ELQ300] |  |  |  | nmi |  |  | 8 | > 20 |  | Ki ([2]; microsomes): 5 µM |
| Cc1cc(Nc2ccc(C(F)(F)F)nc2)n2nc(C(C)(F)F)nc2n1 [DSM421] |  |  |  |  | 0.43 ± 0.020 |  |  |  |  |  |
| Clc1ccc2c(N3CCN(CCCN4CCN(c5ccnc6cc(Cl)ccc56)CC4)CC3)ccnc2c1 [Piperaquine] | 20.1 | > 20 |  | nmi |  | nmi |  |  | 0.042 | fraction unbound at […], 500 ng/mL ([4]; isolated protein, pH 7.4): 0.019 ± 0.004; fraction unbound at […] [7]: 0.013 ± 0.002; IC50 [3, 9]: 4.5 µM; Ki ([3]; CYP3A4 (midaz) Ki, human liver microsomes, CYP3A4 (midaz)): 3.2 µM; IC50 [3, 10]: > 20 µM |
| C[C@H]1c2cccc(O)c2C(=O)C2=C(O)[C@]3(O)C(=O)C(C(N)=O)=C(O)[C@@H](N(C)C)[C@@H]3[C@@H](O)[C@@H]21 [Doxycyclin] | < 7 | > 20 | nmi |  |  | nmi |  |  | 0.23 | fraction unbound at […], 500 ng/mL ([4]; isolated protein, pH 7.4): 0.41 ± 0.023; fraction unbound at […] [7]: 0.93 ± 0.045; IC50 [3, 9]: > 20 µM; IC50 [3, 10]: > 20 µM; inhibition at 20 µM [3, 12]: 22% |
| C[C@H]1Cc2c([nH]c3cc(Cl)c(F)cc23)[C@@]2(N1)C(=O)Nc1ccc(Cl)cc12 [KAE609] | 24.1 | 5.9 | nmi |  |  |  |  |  | 0.057 | fraction unbound at […], 500 ng/mL ([4]; isolated protein, pH 7.4): 0.044 ± 0.004; fraction unbound at […] [7]: 0.019 ± 0.001; Ki [2]: 3.7 µM; IC50 [3, 9]: > 20 µM; IC50 [3, 10]: > 20 µM; inhibition at 20 µM [3, 12]: 30% |
| Cc1cc(Nc2ccc(S(F)(F)(F)(F)F)cc2)n2nc(C(C)(F)F)nc2n1 [DSM265] |  |  |  |  |  |  |  |  | 0.008 | logD [6]: 4.03 |
| CCNCc1cc(Nc2ccnc3cc(Cl)ccc23)ccc1O [Desethylamodiaquine] | 13.3 | 2.6 | nmi |  |  |  |  |  | 0.17 ± 0.002 | logD [6]: 1.3; fraction unbound at […], 500 ng/mL ([4]; isolated protein, pH 7.4): 0.75 ± 0.074; Ki [2]: 1.6 µM; IC50 [3, 9]: > 18 µM |
| CCN(CC)CCCNc1ccnc2cc(Cl)ccc12.Cl.Cl [AQ-13] |  |  | nmi | nmi | 0.85 ± 0.028 |  | 13 | > 20 |  | Measured Log D7.4 [6]: 1.30; Ki ([2]; microsomes): 8.3 µM |
